# Laboratory results reported in patent US20040006783A1, “Compositions and methods for modulating Rop GTPase activity in plants” (THE REGENTS THE UNIVERSITY OF CALIFORINIA, priority 2002, published 2004).
# Like-named read-outs stand apart in the source and are kept apart here.
# Experiments:
# [1] = system: ADH; assay: ADH specific activity in cell extracts of treated seedlings
# [2] = system: GUS activity in ropgap4-1 seedlings; assay: GUS specific activity in ropgap4-1 seedlings; assay type: in vivo, Arabidopsis thaliana
# [3] = system: ropgap4-1 seedlings; conditions: for Viable Seedlings 48 h after Treatment: ropgap4-1, 30 μM DPI in 3% DMSO, mean ± SE
# Text: (§1) For oxygen deprivation, plates were transferred to an airtight chamber designed to allow entry and exit of 99.998% argon under 0.4 μmols/s^1m^2 per μÅ of light.
# [4] = system: H2O2; conditions: seedlings treated with caffeine and DPI for 24 h
# Experimental: Caffeine (5 mM) was incorporated into the medium of plates to which seedlings were transferred. […] Control seedlings were treated with 3% (v/v) DMSO or transferred to plates not containing caffeine.
# H2O2 levels were measured using a modification of the Terashima (1998) method (Terashima et al., Physiol. Plant. 103:295-303 (1998)). Tissue (0.5 g) was homogenized under liquid nitrogen, hydrated in 3 ml of 5% (w/v) metaphosphoric acid and centrifuged at 1,500×g at 4° C. for 20 min. The pH of the supernatant was adjusted to pH 7 with 1M Tricine, 6M NaOH. H2O2 levels were measured in a 500-μl reaction containing 200 mM MOPS-KOH (pH 7.8), 50 mM NADH in 10 mM potassium phosphate (pH 7.8). Absorbance at 340 nm was measured, 0.5 U of Streptococcusfaecalis NADH peroxidase (Sigma) was added, the sample was incubated for 1 h and absorbance at 340 nm was re-measured. H2O2 levels were determined from the decrease in absorbance in 60 min using a standard curve generated from similarly processed H2O2 standards.
# [5] = system: CA-rop2 seedlings; conditions: for Viable Seedlings 48 h after Treatment: CA-rop2, 30 μM DPI in 3% DMSO, mean ± SE
# Text: as §1
# [6] = system: DN-rop2 seedlings; conditions: for Viable Seedlings 48 h after Treatment: DN-rop2, 30 μM DPI in 3% DMSO, mean ± SE
# Text: as §1
# [7] = system: WT seedlings; conditions: for Viable Seedlings 48 h after Treatment: 30 μM DPI in 3% DMSO, mean ± SE
# Text: as §1
structure (smiles),measurement,setting,value
Cn1c(=O)c2c(ncn2C)n(C)c1=O [Caffeine],caffeine promoted increase in ADH specific activity,[1]; CA-rop2 seedlings,limited
same,induction of ADH specific activity,"[1]; all four genotypes, non-stress conditions, caffeine 5 mM, 24 h",significantly higher levels than the maximal level observed in response to low oxygen
same,caffeine promoted increase in ADH specific activity,[1]; ropgap4-1 seedlings,dramatic
same,effect on GUS activity,[2]; caffeine,rose
"c1ccc2c(c1)[I+]c1ccccc1-2 [DPI, diphenylene iodonium chloride]",Viable Seedlings 48 h after Treatment,[3]; 0 h oxygen deprivation,100 Percentage
same,Viable Seedlings 48 h after Treatment,[3]; 6 h oxygen deprivation,100 Percentage
same,Viable Seedlings 48 h after Treatment,[3]; 12 h oxygen deprivation,50 ± 5 Percentage
same,Viable Seedlings 48 h after Treatment,[3]; 24 h oxygen deprivation,0 Percentage
same,effect on survival of O2 deprivation,"[3]; ropgap4-1 seedlings, DPI treatment",increased survival of O2 deprivation
same,effect on caffeine-stimulated increase in H2O2,[4],effectively blocked
same,Viable Seedlings 48 h after Treatment,[5]; 0 h oxygen deprivation,100 Percentage
same,Viable Seedlings 48 h after Treatment,[5]; 6 h oxygen deprivation,100 Percentage
same,Viable Seedlings 48 h after Treatment,[5]; 12 h oxygen deprivation,100 Percentage
same,Viable Seedlings 48 h after Treatment,[5]; 24 h oxygen deprivation,0 Percentage
same,effect on survival of oxygen deprivation,"[5]; CA-rop2 seedlings, in the presence of DPI",improved
same,Viable Seedlings 48 h after Treatment,[6]; 0 h oxygen deprivation,90 ± 3 Percentage
same,Viable Seedlings 48 h after Treatment,[6]; 6 h oxygen deprivation,70 ± 4 Percentage
same,Viable Seedlings 48 h after Treatment,[6]; 12 h oxygen deprivation,0 Percentage
same,Viable Seedlings 48 h after Treatment,[6]; 24 h oxygen deprivation,0 Percentage
same,effect on survival of oxygen deprivation,"[6]; DN-rop2 seedlings, in the presence of DPI",impaired
same,effect on ADH activity,"[1]; all four genotypes, control and low oxygen conditions, 30 μM DPI",reduced ADH activity
same,effect on ADH induction,"[1]; ropgap4-1 seedlings, oxygen deprivation, DPI treatment",reduced ADH induction
same,effect on caffeine-stimulated increase in ADH specific activity,[1]; seedlings treated with caffeine and DPI for 24 h,effectively blocked
same,effect on rise of GUS activity in response to low oxygen and caffeine,[2]; DPI,blocked
same,Viable Seedlings 48 h after Treatment,[7]; 0 h oxygen deprivation,100 Percentage
same,Viable Seedlings 48 h after Treatment,[7]; 6 h oxygen deprivation,80 ± 5 Percentage
same,Viable Seedlings 48 h after Treatment,[7]; 12 h oxygen deprivation,0 Percentage
same,Viable Seedlings 48 h after Treatment,[7]; 24 h oxygen deprivation,0 Percentage
same,duration of stress that WT seedlings survived,[7]; oxygen deprivation with DPI (over 36 h without DPI),less than 12 h
